Measurements: US5869265A, “Ileal bile acid transporter compositions and methods” (Wake Forest University, priority 1996, dated 1999)
Read-outs that look alike come from different tables or passages of the source. Values belong to the compound of their own block, whether it stands above or below them.

Experiments:
[1] = target: T1, human ileal/renal bile acid transporter (Homo sapiens, UniProt Q12908, S171A); experiment: Anion specificity of taurocholate uptake in HIBAT-transfected COS cells; conditions: for taurocholate uptake on replacing chloride (in words): anion in place of chloride; for Taurocholate Uptake, percentage of control: control = uptake in the presence of NaCl, 15 min, 137000 µM
T1 sequence (Q12908 1-348 S171A): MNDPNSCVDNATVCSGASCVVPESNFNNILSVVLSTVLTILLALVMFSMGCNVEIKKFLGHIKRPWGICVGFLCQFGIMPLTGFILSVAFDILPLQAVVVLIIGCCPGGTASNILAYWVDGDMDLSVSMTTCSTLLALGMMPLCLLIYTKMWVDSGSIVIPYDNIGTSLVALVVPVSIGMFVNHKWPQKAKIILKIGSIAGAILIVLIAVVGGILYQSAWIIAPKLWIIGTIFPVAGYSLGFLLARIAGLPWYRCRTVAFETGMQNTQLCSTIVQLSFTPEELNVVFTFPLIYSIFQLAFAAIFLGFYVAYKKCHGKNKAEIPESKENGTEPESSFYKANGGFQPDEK
Method: COS cells were seeded (1.5×10^6 cells/100 mm dish) in DMEM and transfected the following day with pCMV5-HIBAT or pCMV2-βgalactosidase (5 μg) by the DEAE-dextran method. On day 2, each group of transfected cells was treated with trypsin, pooled, and replated in 24-well culture plates at 7×10^4 cells/well. […] The cells were then lysed in 0.1N NaOH and aliquots were taken to determine protein and cell-associated radioactivity. […] Data are also given as percentage of control (uptake in the presence of NaCl).

[2] = target: T2, ileal Na^+ /bile acid cotransporter (IBAT) (Cricetulus griseus, UniProt Q60414); experiment: Inhibition of [^3 H]taurocholate uptake by organic anions in pIBAT-transfected COS cells (FIG. 6B); format: cell-based, hamster; conditions: 100 μM unlabeled inhibitor, 5 μM [^3 H]taurocholate
T2 construct: The hamster IBAT cDNA encodes a protein of 348 amino acids; expressed in transfected cells; host or cells: COS-1 cells, transient DEAE-dextran transfection with pIBAT (cDNA in pCMX)
T2 sequence (Q60414 1-348): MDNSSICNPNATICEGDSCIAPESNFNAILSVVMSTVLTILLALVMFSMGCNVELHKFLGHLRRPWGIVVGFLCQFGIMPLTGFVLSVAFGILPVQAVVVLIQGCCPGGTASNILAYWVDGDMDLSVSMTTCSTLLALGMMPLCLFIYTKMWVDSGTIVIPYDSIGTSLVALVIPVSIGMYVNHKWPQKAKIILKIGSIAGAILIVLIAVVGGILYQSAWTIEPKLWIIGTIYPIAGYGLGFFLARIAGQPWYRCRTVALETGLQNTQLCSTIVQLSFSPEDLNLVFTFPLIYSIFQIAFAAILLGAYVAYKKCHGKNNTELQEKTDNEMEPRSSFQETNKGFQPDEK
Method: FIG. 6B. […] COS cells were plated and transfected as described in the description of FIG. 4 (immediately above).
(§1) On day 0, dishes of 1.50×10^6 cells per 100-mm dish were plated in medium A. On day 1, the cells were transfected by the DEAE-dextran method (Esser et al., 1988) with 5 μg plasmid DNA. […] After the indicated amount of time at 37° C., the medium was removed, and each cell monolayer was washed and processed to determine cell-associated protein and radioactivity as described above.

[3] = system: liver membranes; conditions: cited from earlier work
[4] = target: T3, human ileal/renal bile acid transporter (Homo sapiens, UniProt Q12908); experiment: Cation specificity of taurocholate uptake in HIBAT-transfected COS cells; format: cell-based; conditions: 137 mM cation, 5 μM [^3 H]taurocholate, 15 min, 37° C., mean±SD of triplicate
T3 construct: were fused to make a single clone encoding the entire gene; expressed in transfected cells; host or cells: COS cells, transient DEAE-dextran transfection with pCMV5-HIBAT
T3 sequence (Q12908 1-348 S171A): T1 sequence (Q12908 1-348 S171A)
Method: (§2) COS cells were seeded (1.5×10^6 cells/100 mm dish) in DMEM and transfected the following day with pCMV5-HIBAT or pCMV2-βgalactosidase (5 μg) by the DEAE-dextran method. On day 2, each group of transfected cells was treated with trypsin, pooled, and replated in 24-well culture plates at 7×10^4 cells/well. […] The cells were then lysed in 0.1N NaOH and aliquots were taken to determine protein and cell-associated radioactivity. […] Data are also given as percentage of control (uptake in the presence of sodium).

[5] = system: ileal/renal bile acid transporter; conditions: cation replacing Na^+; cited from earlier work
[6] = target: T1, human ileal/renal bile acid transporter; experiment: Cation specificity of taurocholate uptake in HIBAT-transfected COS cells; format: cell-based; set-up: were fused to make a single clone encoding the entire gene; expressed in transfected cells; host or cells: COS cells, transient DEAE-dextran transfection with pCMV5-HIBAT; conditions: for Taurocholate Uptake, percentage of control: control = uptake in the presence of sodium, 15 min, 137000 µM
Method: as §2

[7] = target: T1, human ileal/renal bile acid transporter; experiment: Substrate specificity: [^3 H]taurocholate competition in HIBAT-transfected COS cells (Dixon plot); format: cell-based; set-up: were fused to make a single clone encoding the entire gene; expressed in transfected cells; host or cells: COS cells, transient DEAE-dextran transfection with pCMV5-HIBAT
Description: It is the ileal/renal bile acid transporter system's remarkable substrate specificity that makes it an appealing pharmacological target for the treatment of hypercholesterolemia by interrupting the enterohepatic circulation of bile acids. […] These studies of the major bile acid species were later extended in animal model systems to include various chemical derivatives of bile acids. However, the affinity of the human ileal/renal bile acid transporter for these natural bile acids has never been studied systematically. In addition to bile acids, the transport of other organic anions has been studied. […] The Km, Vmax, and Ki values were determined using Eadie-Hofstee and Dixon plot analysis.

[8] = target: T2, ileal Na^+ /bile acid cotransporter (IBAT); experiment: Competition for [^3 H]taurocholate uptake in pIBAT-transfected COS cells (transport specificity, FIG. 6A); format: cell-based, hamster; conditions: for inhibition of [^3 H]taurocholate uptake: 50 μM unlabeled competitor, 5 μM [^3 H]taurocholate (10-fold molar excess); for effect on [^3 H]taurocholate uptake (in words): 50 μM competitor, compared with taurocholate
Method: FIG. 6A. Transport specificity of pIBAT-transfected COS cells in the presence of competitors. COS cells were plated and transfected as described in the description of FIG. 4 (immediately above).
as §1
To examine the transport specificity of the IBAT protein, COS cells were transfected with the IBAT cDNA and incubated with 50 μM unlabeled bile acid or other competitor.

[9] = system: liver taurocholate uptake; conditions: cited from earlier work
[10] = system: ileal transporter; conditions: in vivo; cited from earlier work
[11] = target: T2, ileal Na^+ /bile acid cotransporter (IBAT); experiment: Sodium-dependence of taurocholate uptake in IBAT-transfected COS cells; format: cell-based, hamster
Method: as §1

[12] = system: cholestasis; conditions: patients with cholestasis; cited from earlier work

Compound: CC(=O)O [Acetate, sodium acetate]
taurocholate uptake on replacing chloride (in words) [1]: markedly reduced

Compound: O=C1OC(c2ccc(O)c(S(=O)(=O)O)c2)(c2ccc(O)c(S(=O)(=O)O)c2)c2c(Br)c(Br)c(Br)c(Br)c21 [BSP, bromosulfophthalein]
inhibition of [^3 H]taurocholate uptake (in words) [2]: not to be significantly inhibited
inhibition of [^3 H]taurocholate uptake (in words) ([2]; listed as bromosulfophthalein (BSP)): not inhibited
inhibition of Na^+ -dependent taurocholate uptake (in words) [3]: shown to inhibit

Taurocholate Uptake [4]: 0.2 ± 0.01 pmol/min/mg
Taurocholate Uptake, percentage of control [6]: 2%
Compound: [Cs+] [Cesium]
effect of replacing Na^+ on active taurocholate transport (in words) [5]: significantly inhibited

Compound: C[C@H](CCC(=O)O)[C@H]1CC[C@H]2[C@@H]3[C@H](O)C[C@@H]4C[C@H](O)CC[C@]4(C)[C@H]3CC[C@]12C [Chenodeoxycholate]
Ki [7]: 3.3 ± 1.9 µM

Compound: Cl [Chloride]
Taurocholate Uptake, percentage of control [1]: 100%

Compound: C[C@H](CCC(=O)O)[C@H]1CC[C@H]2[C@@H]3[C@H](O)C[C@@H]4C[C@H](O)CC[C@]4(C)[C@H]3C[C@H](O)[C@]12C [Cholate]
inhibition of [^3 H]taurocholate uptake [8]: 51%

Compound: O=C(O)CC(O)(CC(=O)O)C(=O)O [Citrate]
taurocholate uptake on replacing chloride (in words) [1]: markedly reduced

inhibition of [^3 H]taurocholate uptake (in words) [2]: not to be significantly inhibited
inhibition of [^3 H]taurocholate uptake (in words) ([2]; listed as 4,4'-diisothiocyano-2,2'-disulfonic acid stilbene (DIDS)): not inhibited
Compound: O=S(=O)(O)c1cc(N=C=S)ccc1C=Cc1ccc(N=C=S)cc1S(=O)(=O)O [DIDS, 4,4'-diisothiocyano-2,2'-disulfonic acid stilbene]
competition for liver taurocholate uptake (in words) [9]: compete for liver taurocholate uptake
effect against the ileal transporter (in words) [10]: ineffective
inhibition of Na^+ -dependent taurocholate uptake (in words) [3]: shown to inhibit

Compound: C[C@H](CCC(=O)O)[C@H]1CC[C@H]2[C@@H]3CC[C@@H]4C[C@H](O)CC[C@]4(C)[C@H]3C[C@H](O)[C@]12C [Deoxycholate]
Ki [7]: 6.4 ± 2.5 µM

Compound: [Li] [Lithium]
Taurocholate Uptake [4]: 0.3 ± 0.04 pmol/min/mg
effect of replacing Na^+ on active taurocholate transport (in words) [5]: significantly inhibited

Taurocholate Uptake [4]: 0.3 ± 0.17 pmol/min/mg
support of [^3 H]taurocholate uptake (in words) ([11]; in place of 137 mM Na^+, equal concentration): unable to support
taurocholate uptake on replacing Na^+ (in words) ([6]; cation replacing Na^+): dramatically reduced
Taurocholate Uptake, percentage of control [6]: 3%
Compound: [K+] [Potassium]
effect of replacing Na^+ on active taurocholate transport (in words) [5]: significantly inhibited

Taurocholate Uptake [4]: 0.3 ± 0.09 pmol/min/mg
Taurocholate Uptake, percentage of control [6]: 3%
Compound: [Rb] [Rubidium]
effect of replacing Na^+ on active taurocholate transport (in words) [5]: significantly inhibited

Taurocholate Uptake [4]: 9.2 ± 0.41 pmol/min/mg
taurocholate uptake (100% of control value) ([11]; 137 mM sodium, 5 μM [^3 H]taurocholate, 15 minutes): 134±26 pmoles min^-1 mg^-1 protein
Taurocholate Uptake, percentage of control [6]: 100%
Compound: [Na+] [Sodium]

Taurocholate Uptake, percentage of control [1]: 69%
Compound: O=S(=O)(O)O [Sulfate]

Ki ([7]; read-out: Apparent Ki): 3.2 ± 0.5 µM
effect on [^3 H]taurocholate uptake (in words) [8]: competed more effectively
effect on [^3 H]taurocholate uptake (in words) ([8]; listed as taurochenodeoxycholic acid): more effective competitors
inhibition of [^3 H]taurocholate uptake [8]: 87%
Compound: C[C@H](CCC(=O)NCCS(=O)(=O)O)[C@H]1CC[C@H]2[C@@H]3[C@H](O)C[C@@H]4C[C@H](O)CC[C@]4(C)[C@H]3CC[C@]12C [Taurochenodeoxycholate, taurochenodeoxycholate]

Compound: C[C@H](CCC(=O)NCCS(=O)(=O)O)[C@H]1CC[C@H]2[C@@H]3CC[C@@H]4C[C@H](O)CC[C@]4(C)[C@H]3C[C@H](O)[C@]12C [Taurodeoxycholate, taurodeoxycholate]
Ki [7]: 17.3 ± 3.9 µM
effect on [^3 H]taurocholate uptake (in words) [8]: competed more effectively
effect on [^3 H]taurocholate uptake (in words) ([8]; listed as taurodeoxycholic acid): more effective competitors
inhibition of [^3 H]taurocholate uptake [8]: 80%

Ki ([7]; read-out: Apparent Ki): 28.4 ± 7.4 µM
Compound: C[C@H](CCC(=O)NCCS(=O)(=O)O)[C@H]1CC[C@H]2[C@@H]3[C@@H](O)C[C@@H]4C[C@H](O)CC[C@]4(C)[C@H]3CC[C@]12C [Tauroursodeoxycholate]

Compound: C[C@H](CCC(=O)O)[C@H]1CC[C@H]2[C@@H]3[C@@H](O)C[C@@H]4C[C@H](O)CC[C@]4(C)[C@H]3CC[C@]12C [Ursodeoxycholate, Ursodeoxycholic acid]
treatment outcome (in words) [12]: improves liver function, but does not stop the progression of the disease
Ki [7]: 77.1 ± 17.2 µM

Compound: C=CC1=C(C)/C(=C/c2[nH]c(Cc3[nH]c(/C=C4\NC(=O)C(C)=C4C=C)c(C)c3CCC(=O)O)c(CCC(=O)O)c2C)NC1=O [bilirubin]
competition for liver taurocholate uptake (in words) [9]: compete for liver taurocholate uptake
effect against the ileal transporter (in words) [10]: ineffective

Compound: CC1(C)C(/C=C/C=C/C=C/C=C2\N(CCCCS(=O)(=O)O)c3ccc4ccccc4c3C2(C)C)=[N+](CCCCS(=O)(=O)[O-])c2ccc3ccccc3c21 [indocyanine green]
competition for liver taurocholate uptake (in words) [9]: compete for liver taurocholate uptake
effect against the ileal transporter (in words) [10]: ineffective

effect on [^3 H]taurocholate uptake (in words) [8]: limited effect
Compound: NCCS(=O)(=O)O [taurine]

taurocholate uptake on replacing chloride (in words) [1]: markedly reduced
Taurocholate Uptake, percentage of control [1]: 31%
Compound: Phosphate

Compound: phalloidin
competition for liver taurocholate uptake (in words) [9]: compete for liver taurocholate uptake
effect against the ileal transporter (in words) [10]: ineffective
